Assay results taken from patent publication US12528818B2, “Compositions and methods for inhibition of RAS” (Leidos Biomedical Research, Inc., priority 2021, dated 2026).

These compounds were tested on pERK in NCI-H358 cells (assay: Cell-based pERK HTRF assay (pERK inhibition in H358 cells)). Conditions: Homo sapiens, NCI-H358, 0.5 h, pERK inhibition IC50, NCI-H358 cells, 30 min incubation; read-out: PERK in H358 cell.
Description: On Day 1, cells (NCI-H358) were seeded into 96-well plates at 4×10^4 cells/well in complete growth media (RPMI, 10% FBS).
The source plate was created with compounds diluted in media at 5-fold the final assay concentration. […] 20 μL was transferred onto the cell plates (final volume in wells was 100 μL). Plates were harvested after 30 min incubation by aspirating media and adding kit-supplied 1× supplemented lysis buffer to all wells (75 μl per well). Plates were then placed on a plate shaker and incubated at 850 rpm for an additional 30 min.
Antibody mixture solution was prepared by diluting aliquoted d2 and Eu Cryptate antibodies 1:20 in kit supplied detection buffer, then mixed the diluted antibodies solutions (1:1 v:v).
Samples were homogenized by pipetting up and down and then transferred (16 μL of cell lysates) from the 96-well cell culture plate to two wells of the HTRF 384-well detection plate containing the antibody solution. Plates were centrifuged (524 g for 1 min) and allowed to incubate between 4 and 24 h at room temperature. Maximum signal is reached after 4 h incubation time and remains stable over a period of 24 hours. Therefore, readings can be made between 4 and 24 h of incubation.

`CC#CC(=O)N1CC[C@@H]2[C@H]1CN2c1nc(OCC23CCCN2CCC3)nc2c(F)c(-c3ccc(F)c4sc(N)nc34)c(Cl)cc12` [Compound 118] and `CC#CC(=O)N1CC[C@@H]2[C@H]1CN2c1nc(OCC23CCCN2CCC3)nc2c(F)c(-c3ccc(F)c4sc(N)nc34)c(C(F)(F)F)cc12` [Compound 180] cannot be ordered by IC50: greater than 1000 nM for the first, greater than 1000 nM for the second.

`C=CC(=O)N1CCN(c2nc(OCC34CCCN3CCC4)nc3c(F)c(-c4ccc(F)c5sc(N)nc45)c(-c4ccoc4)cc23)CC1` [Compound 119] and `C=CC(=O)N1CC[C@@H]2[C@H]1CN2c1nc(OCC23CCCN2CCC3)nc2c(F)c(-c3ccc(F)c4sc(N)nc34)c(-c3ccoc3)cc12` [Compound 121] cannot be ordered by IC50: greater than 1000 nM for the first, greater than 1000 nM for the second.

Compared with `CC#CC(=O)N1CC[C@@H]2[C@H]1CN2c1nc(OCC23CCCN2CCC3)nc2c(F)c(-c3ccc(F)c4sc(N)nc34)c(-c3ccoc3)cc12` [Compound 120], `C=CC(=O)N1CC[C@@H]2[C@H]1CN2c1nc(OCC23CCCN2CCC3)nc2c(F)c(-c3ccc(F)c4sc(N)nc34)c(C(F)(F)F)cc12` [Compound 166] is lower in IC50: greater than 1000 nM for the first, 100 to 1000 nM for the second. The second is the more potent here.

First: C=CC(=O)N1CCN(c2ncnc3c(F)c(-c4ccc(F)c5sc(N)nc45)c(C4CCC4)cc23)CC1 [Compound 122]
Second: C=CC(=O)N1CCN(c2nc(OC[C@@H]3CCCN3C)nc3c(F)c(-c4ccc(F)c5sc(N)nc45)c(OC(F)(F)F)cc23)CC1 [Compound 163]
The IC50 of the first is higher: greater than 1000 nM for the first, 100 to 1000 nM for the second.

First: CC#CC(=O)N1CC(N(C)c2nc(OC[C@@H]3CCCN3C)nc3c(F)c(-c4ccc(F)c5sc(N)nc45)c(C(F)(F)F)cc23)C1 [Compound 129]
Second: C=CC(=O)N1CC(N(C)c2nc(OC[C@@H]3CC(F)(F)CN3C)nc3c(F)c(-c4ccc(F)c5sc(N)nc45)c(C(F)(F)F)cc23)C1 [Compound 181]
The IC50 of the first is lower: 100 to 1000 nM for the first, greater than 1000 nM for the second. The first is the more potent here.

Going from `C=CC(=O)N1CCN(c2nc(OC[C@@H]3CC(F)(F)CN3C)nc3c(F)c(-c4ccc(F)c5sc(N)nc45)c(C(F)(F)F)cc23)CC1` [Compound 131] to `CC#CC(=O)N1CCN(c2nc(OC[C@@H]3CC(F)(F)CN3C)nc3c(F)c(-c4ccc(F)c5sc(N)nc45)c(C(F)(F)F)cc23)CC1` [Compound 132], the IC50 rises from less than 100 nM to greater than 1000 nM. The first is the more potent here.

First: CC#CC(=O)N1CCN(c2nc(OCC34CCCN3CCC4)nc3c(F)c(-c4ccc(F)c5sc(N)nc45)c(Cl)cc23)CC1 [Compound 133]
Second: CC#CC(=O)N1CCN(c2nc(OCC34CCCN3CCC4)nc3c(F)c(-c4ccc(F)c5sc(N)nc45)c(C(F)(F)F)cc23)CC1 [Compound 134]
The IC50 of the first is higher: greater than 1000 nM for the first, 100 to 1000 nM for the second.

`C=CC(=O)N1CC[C@@H]2[C@H]1CN2c1nc(OC[C@@H]2C[C@@H](F)CN2C)nc2c(F)c(-c3ccc(F)c4sc(N)nc34)c(C(F)(F)F)cc12` [Compound 138] and `C=CC(=O)N1CCN(c2nc(OC[C@]34CCCN3C[C@H](F)C4)nc3c(F)c(-c4ccc(F)c5sc(N)nc45)c(C(F)(F)F)cc23)[C@@H](C)C1` [Compound 177] cannot be ordered by IC50: less than 100 nM for the first, less than 100 nM for the second.

`C=CC(=O)N1CC(N(CCC#N)c2nc(OC[C@@H]3CCCN3C)nc3c(F)c(-c4ccc(F)c5sc(N)nc45)c(Cl)cc23)C1` [Compound 141] and `C=CC(=O)N1CC(N(c2nc(OCC3CCCN3C)nc3c(F)c(-c4ccc(F)c5sc(N)nc45)c(Cl)cc23)C(C)C)C1` (stereo not drawn) [Compound 159] cannot be ordered by IC50: greater than 1000 nM for the first, greater than 1000 nM for the second.

`CC#CC(=O)N1CCN(c2nc(OC[C@]34CCCN3C[C@H](F)C4)nc3c(F)c(-c4ccc(F)c5sc(N)nc45)c(C(F)(F)F)cc23)CC1` [Compound 149] and `C=CC(=O)N1CCN(c2nc(OC[C@]34CCCN3C[C@H](F)C4)nc3c(F)c(-c4ccc(F)c5sc(N)nc45)c(C(F)(F)F)cc23)CC1` [Compound 150] cannot be ordered by IC50: less than 100 nM for the first, less than 100 nM for the second.

`C=CC(=O)N1CC(N(c2nc(OCC34CCCN3CCC4)nc3c(F)c(-c4ccc(F)c5sc(N)nc45)c(Cl)cc23)C2CC2)C1` [Compound 151] and `C=CC(=O)N1CC(N(c2nc(OCC34CCCN3CCC4)nc3c(F)c(-c4ccc(F)c5sc(N)nc45)c(C(F)(F)F)cc23)C2CC2)C1` [Compound 152] cannot be ordered by IC50: greater than 1000 nM for the first, greater than 1000 nM for the second.

`C=CC(=O)N1CCN(c2nc(OC[C@@H]3CCCN3CCF)nc3c(F)c(-c4ccc(F)c5sc(N)nc45)c(C(F)(F)F)cc23)CC1` [Compound 153] and `C=CC(=O)N1CCN(c2nc(OC[C@@H]3CCCN3CC(F)F)nc3c(F)c(-c4ccc(F)c5sc(N)nc45)c(C(F)(F)F)cc23)CC1` [Compound 156] cannot be ordered by IC50: less than 100 nM for the first, less than 100 nM for the second.

Compared with `CC#CC(=O)N1CCN(c2nc(OC[C@@H]3CCCN3CCF)nc3c(F)c(-c4ccc(F)c5sc(N)nc45)c(C(F)(F)F)cc23)CC1` [Compound 154], `CC#CC(=O)N1CCN(c2nc(OCC34CCCN3CC(F)(F)C4)nc3c(F)c(-c4ccc(F)c5sc(N)nc45)c(C(F)(F)F)cc23)CC1` (stereo not drawn) [Compound 193] is higher in IC50: 100 to 1000 nM for the first, greater than 1000 nM for the second. The first is the more potent here.

`C=CC(=O)N1C2CC1CN(c1nc(OCC34CCCN3CCC4)nc3c(F)c(-c4ccc(F)c5sc(N)nc45)c(Cl)cc13)C2` [Compound 161] and `C=CC(=O)N(C)C1CN(c2nc(OCC34CCCN3CCC4)nc3c(F)c(-c4ccc(F)c5sc(N)nc45)c(Cl)cc23)C1` [Compound 167] cannot be ordered by IC50: greater than 1000 nM for the first, greater than 1000 nM for the second.

First: C=CC(=O)N1CCN(c2nc(OCC34CCCN3CCC4)nc3c(F)c(-c4ccc(F)c5oc(N)nc45)c(C(F)(F)F)cc23)CC1 [Compound 162, 1-(4-(7-(2-amino-7-fluorobenzo[d]oxazol-4-yl)-8-fluoro-2-((tetrahydro-1H-pyrrolizin-7a(5H)-yl)methoxy)-6-(trifluoromethyl)quinazolin-4-yl)piperazin-1-yl)prop-2-en-1-one]
Second: C=CC(=O)N1CCN(c2nc(OC[C@@]34CCCN3C[C@H](F)C4)nc3c(F)c(-c4ccc(F)c5sc(N)nc45)c(C(F)(F)F)cc23)CC1 [Compound 194]
The IC50 of the first is higher: 100 to 1000 nM for the first, less than 100 nM for the second. The second is the more potent here.

`C=CC(=O)N1CCN(c2nc(OC[C@]34CCCN3C[C@H](F)C4)nc3c(F)c(-c4ccc(F)c5sc(N)nc45)c(C(F)(F)F)cc23)C[C@@H]1C` [Compound 165] and `C=CC(=O)N1CCN(c2nc(OC[C@]34CCCN3C[C@H](F)C4)nc3c(F)c(-c4ccc(F)c5sc(N)nc45)c(C(F)(F)F)cc23)C[C@H]1C` [Compound 190] cannot be ordered by IC50: less than 100 nM for the first, less than 100 nM for the second.

`C=CC(=O)N1CC(N(C)c2nc(OC[C@]34CCCN3C[C@H](F)C4)nc3c(F)c(-c4ccc(F)c5sc(N)nc45)c(Cl)cc23)C1` [Compound 169] and `C=CC(=O)N1CC[C@H](N(C)c2nc(OC[C@@]34CCCN3C[C@H](F)C4)nc3c(F)c(-c4ccc(F)c5sc(N)nc45)c(Cl)cc23)C1` [Compound 185] fall in the same range of IC50: 100 to 1000 nM for the first, 100 to 1000 nM for the second.

First: CC#CC(=O)N1CCN(c2nc(OCC34CCCN3CC(C)(C)C4)nc3c(F)c(-c4ccc(F)c5sc(N)nc45)c(C(F)(F)F)cc23)CC1 (stereo not drawn) [Compound 170]
Second: C=CC(=O)N1CCN(c2nc(OCC34CCCN3CC(C)(C)C4)nc3c(F)c(-c4ccc(F)c5sc(N)nc45)c(C(F)(F)F)cc23)CC1 (stereo not drawn) [Compound 171, 1-(4-(7-(2-amino-7-fluorobenzo[d]thiazol-4-yl)-2-((2,2-dimethyltetrahydro-1H-pyrrolizin-7a(5H)-yl)methoxy)-8-fluoro-6-(trifluoromethyl)quinazolin-4-yl)piperazin-1-yl)prop-2-en-1-one]
The IC50 of the first is higher: 100 to 1000 nM for the first, less than 100 nM for the second. The second is the more potent here.

Compared with `CC#CC(=O)N(C)C1CN(c2nc(OCC34CCCN3CCC4)nc3c(F)c(-c4ccc(F)c5sc(N)nc45)c(Cl)cc23)C1` [Compound 172], `C=CC(=O)N1CC[C@@H](N(C)c2nc(OC[C@@]34CCCN3C[C@H](F)C4)nc3c(F)c(-c4ccc(F)c5sc(N)nc45)c(Cl)cc23)C1` [Compound 195, 1-((3R)-3-((7-(2-amino-7-fluorobenzo[d]thiazol-4-yl)-6-chloro-8-fluoro-2-(((2R,7aS)-2-fluorotetrahydro-1H-pyrrolizin-7a(5H)-yl)methoxy)quinazolin-4-yl)(methyl)amino)pyrrolidin-1-yl)prop-2-en-1-one] is lower in IC50: greater than 1000 nM for the first, less than 100 nM for the second.

`C=CC(=O)N1CC(N(c2nc(OC[C@]34CCCN3C[C@H](F)C4)nc3c(F)c(-c4ccc(F)c5sc(N)nc45)c(C(F)(F)F)cc23)C2CC2)C1` [Compound 178, 1-(3-((7-(2-amino-7-fluorobenzo[d]thiazol-4-yl)-8-fluoro-2-(((2R,7aR)-2-fluorotetrahydro-1H-pyrrolizin-7a(5H)-yl)methoxy)-6-(trifluoromethyl)quinazolin-4-yl)(cyclopropyl)amino)azetidin-1-yl)prop-2-en-1-one] and `C=CC(=O)N1CC[C@H](N(C)c2nc(OC[C@@]34CCCN3C[C@H](F)C4)nc3c(F)c(-c4ccc(F)c5sc(N)nc45)c(C(F)(F)F)cc23)C1` [Compound 188] fall in the same range of IC50: 100 to 1000 nM for the first, 100 to 1000 nM for the second.

`C=C(F)C(=O)N1CCN(c2nc(OC[C@@]34CCCN3C[C@H](F)C4)nc3c(F)c(-c4ccc(F)c5sc(N)nc45)c(C(F)(F)F)cc23)CC1` [Compound 186] and `C=C(F)C(=O)N1CCN(c2nc(OC[C@]34CCCN3C[C@H](F)C4)nc3c(F)c(-c4ccc(F)c5sc(N)nc45)c(C(F)(F)F)cc23)C[C@H]1C` [Compound 191] fall in the same range of IC50: 100 to 1000 nM for the first, 100 to 1000 nM for the second.

Compared with `C=CC(=O)N1CC(N(C)c2nc(OCC34CCCN3CC(F)(F)C4)nc3c(F)c(-c4ccc(F)c5sc(N)nc45)c(C(F)(F)F)cc23)C1` (stereo not drawn) [Compound 187], `C=CC(=O)N1CCN(c2nc(OCC34CCCN3CC(F)(F)C4)nc3c(F)c(-c4ccc(F)c5sc(N)nc45)c(C(F)(F)F)cc23)CC1` (stereo not drawn) [Compound 192] is lower in IC50: 100 to 1000 nM for the first, less than 100 nM for the second.

`C=CC(=O)N1CCN(c2nc(OC[C@@]34CCCN3C[C@H](F)C4)nc3c(F)c(-c4ccc(F)c5sc(N)nc45)c(C(F)(F)F)cc23)[C@@H](C)C1` [Compound 189] showed an IC50 of less than 100 nM.
